Reference: ChEMBL document CHEMBL4387765, “Rational design, molecular docking and synthesis of novel homopiperazine linked imidazo[1,2-a]pyrimidine derivatives as potent cytotoxic and antimicrobial agents” (Bioorg Med Chem Lett, 2019)
≈ marks a conversion by molar mass, not a printed value.

Legend:
[1] = system: A549; experiment: Cytotoxicity against human A549 cells assessed as reduction in cell growth measured after 48 hrs by sulforhodamine B assay; format: functional, cell-based; conditions: A549, 48 h
[2] = system: HeLa; experiment: Cytotoxicity against human HeLa cells assessed as reduction in cell growth measured after 48 hrs by sulforhodamine B assay; format: functional, cell-based
[3] = system: Escherichia coli; experiment: Antibacterial activity against Escherichia coli MTCC 443 after 24 hrs by serial dilution method; format: functional
[4] = system: Pseudomonas sp.; experiment: Antibacterial activity against Pseudomonas sp. 2496 after 24 hrs by serial dilution method; format: functional
[5] = system: DU-145; experiment: Cytotoxicity against human DU145 cells assessed as reduction in cell growth measured after 48 hrs by sulforhodamine B assay; format: functional, cell-based; conditions: DU-145, 48 h
[6] = system: Priestia megaterium; experiment: Antibacterial activity against Bacillus megaterium MTCC 428 after 24 hrs by serial dilution method; format: functional; conditions: MTCC 428, 24 h
[7] = system: SK-OV-3; experiment: Cytotoxicity against human SKOV3 cells assessed as reduction in cell growth measured after 48 hrs by sulforhodamine B assay; format: functional, cell-based; conditions: SK-OV-3, 48 h
[8] = system: Bacillus subtilis; experiment: Antibacterial activity against Bacillus subtilis MTCC 441 after 24 hrs by serial dilution method; format: functional; conditions: MTCC 441, 24 h
[9] = system: Candida albicans; experiment: Antifungal activity against Candida albicans MTCC 227 after 72 hrs by serial dilution method; format: functional; conditions: MTCC 227, 72 h
[10] = system: DU-145; experiment: Potency index, ratio of etoposide IC50 to test compound IC50 for human DU145 cells; format: functional
[11] = system: HeLa; experiment: Potency index, ratio of etoposide IC50 to test compound IC50 for human HeLa cells; format: functional

Compound | IC50 [1] | IC50 [2] | MIC ([3]; MTCC 443, 24 h) | MIC ([4]; Pseudomonas sp., 2496, 24 h) | IC50 [5] | MIC [6] | IC50 [7] | MIC [8] | MIC [9] | MIC [3] | MIC [4] | Ratio IC50 [10] | Ratio IC50 [11]
O=C(C1CCCCC1)N1CCCN(c2ccn3cc(-c4ccc(F)cc4)nc3n2)CC1 | 104 µM | 170 µM | > 100 µg/mL | 44.2 µg/mL (≈ 105 µM) | 183 µM | > 100 µg/mL | 14.5 µM | > 100 µg/mL | > 100 µg/mL | – | – | – | –
O=S(=O)(c1ccc(F)cc1F)N1CCCN(c2ccn3cc(-c4ccc(F)cc4)nc3n2)CC1 | > 300 µM | > 300 µM | 4.6 µg/mL (≈ 9.44 µM) | 5.2 µg/mL (≈ 10.7 µM) | > 300 µM | 10.4 µg/mL (≈ 21.3 µM) | 10 µM | 8.8 µg/mL (≈ 18.1 µM) | > 100 µg/mL | – | – | – | –
Cc1ccc(S(=O)(=O)N2CCCN(c3ccn4cc(-c5ccc(F)cc5)nc4n3)CC2)cc1[N+](=O)[O-] | > 300 µM | > 300 µM | 4.2 µg/mL (≈ 8.23 µM) | 8.6 µg/mL (≈ 16.8 µM) | 16.9 µM | 58.8 µg/mL (≈ 115 µM) | > 300 µM | 34.2 µg/mL (≈ 67 µM) | 81.6 µg/mL (≈ 160 µM) | – | – | – | –
CS(=O)(=O)N1CCCN(c2ccn3cc(-c4ccc(F)cc4)nc3n2)CC1 | 8.41 µM | > 300 µM | 18.4 µg/mL (≈ 47.2 µM) | 34.6 µg/mL (≈ 88.8 µM) | > 300 µM | 26.4 µg/mL (≈ 67.8 µM) | > 300 µM | 28.7 µg/mL (≈ 73.7 µM) | 38.7 µg/mL (≈ 99.4 µM) | – | – | – | –
CN(C)S(=O)(=O)N1CCCN(c2ccn3cc(-c4ccc(F)cc4)nc3n2)CC1 | 29.9 µM | > 300 µM | 1.4 µg/mL (≈ 3.35 µM) | 3.8 µg/mL (≈ 9.08 µM) | > 300 µM | 10.2 µg/mL (≈ 24.4 µM) | > 300 µM | 9.6 µg/mL (≈ 22.9 µM) | 8.2 µg/mL (≈ 19.6 µM) | – | – | – | –
CC(=O)N1CCCN(c2ccn3cc(-c4ccc(F)cc4)nc3n2)CC1 | 103 µM | 220 µM | 0.92 µg/mL (≈ 2.6 µM) | 12.6 µg/mL (≈ 35.7 µM) | > 300 µM | > 100 µg/mL | 105 µM | 84.2 µg/mL (≈ 238 µM) | 9.8 µg/mL (≈ 27.7 µM) | – | – | – | –
O=C(c1ccc(Cl)cc1)N1CCCN(c2ccn3cc(-c4ccc(F)cc4)nc3n2)CC1 | 110 µM | 8.55 µM | 88.2 µg/mL (≈ 196 µM) | > 100 µg/mL | 15.2 µM | 58.6 µg/mL (≈ 130 µM) | > 300 µM | 58.6 µg/mL (≈ 130 µM) | > 100 µg/mL | – | – | – | –
CN(C)C(=O)N1CCCN(c2ccn3cc(-c4ccc(F)cc4)nc3n2)CC1 | 5.98 µM | > 300 µM | 0.86 µg/mL (≈ 2.25 µM) | 1.8 µg/mL (≈ 4.71 µM) | 10.6 µM | 15.8 µg/mL (≈ 41.3 µM) | 71.5 µM | 18.6 µg/mL (≈ 48.6 µM) | 4.6 µg/mL (≈ 12 µM) | – | – | – | –
COc1cc([C@@H]2c3cc4c(cc3[C@@H](O[C@@H]3O[C@@H]5CO[C@@H](C)O[C@H]5[C@H](O)[C@H]3O)[C@H]3COC(=O)[C@H]23)OCO4)cc(OC)c1O [ETOPOSIDE] | 10.4 µM | 7.43 µM | – | – | 9.8 µM | – | 2.39 µM | – | – | – | – | – | –
GENTAMICIN | – | – | – | – | – | – | – | – | – | 3 µg/mL | 6 µg/mL | – | –
CC1(C)S[C@@H]2[C@H](NC(=O)[C@H](N)c3ccccc3)C(=O)N2[C@H]1C(=O)O [AMPICILLIN] | – | – | – | – | – | 22 µg/mL (≈ 63 µM) | – | 22 µg/mL (≈ 63 µM) | – | – | – | – | –
COc1cccc(S(=O)(=O)N2CCCN(c3ccn4cc(-c5ccc(F)cc5)nc4n3)CC2)c1 | 4.14 µM | 6.54 µM | 33.8 µg/mL (≈ 70.2 µM) | 22.1 µg/mL (≈ 45.9 µM) | 6.24 µM | 84.4 µg/mL (≈ 175 µM) | 229 µM | 84.8 µg/mL (≈ 176 µM) | > 100 µg/mL | – | – | 1.57 | 1.13
N#Cc1ccc(S(=O)(=O)N2CCCN(c3ccn4cc(-c5ccc(F)cc5)nc4n3)CC2)cc1 | > 300 µM | > 300 µM | 58.6 µg/mL (≈ 123 µM) | 34.2 µg/mL (≈ 71.8 µM) | > 300 µM | 21.7 µg/mL (≈ 45.5 µM) | 22.3 µM | 24.8 µg/mL (≈ 52 µM) | 68.1 µg/mL (≈ 143 µM) | – | – | – | –
COC(=O)N1CCCN(c2ccn3cc(-c4ccc(F)cc4)nc3n2)CC1 | 8.02 µM | 262 µM | 7.8 µg/mL (≈ 21.1 µM) | 18.6 µg/mL (≈ 50.4 µM) | > 300 µM | 47.2 µg/mL (≈ 128 µM) | 38.7 µM | 35.8 µg/mL (≈ 96.9 µM) | 81.6 µg/mL (≈ 221 µM) | – | – | – | –
O=C(c1ccc(F)cc1)N1CCCN(c2ccn3cc(-c4ccc(F)cc4)nc3n2)CC1 | 194 µM | 6.12 µM | 22.8 µg/mL (≈ 52.6 µM) | 38.2 µg/mL (≈ 88.1 µM) | > 300 µM | 36.7 µg/mL (≈ 84.7 µM) | 12.7 µM | 34.4 µg/mL (≈ 79.4 µM) | 74.2 µg/mL (≈ 171 µM) | – | – | – | 1.31
O=S(=O)(C1CC1)N1CCCN(c2ccn3cc(-c4ccc(F)cc4)nc3n2)CC1 | > 300 µM | 33.5 µM | 34.6 µg/mL (≈ 83.3 µM) | 28.2 µg/mL (≈ 67.9 µM) | 40.4 µM | 64.6 µg/mL (≈ 155 µM) | > 300 µM | 48.4 µg/mL (≈ 116 µM) | 14.6 µg/mL (≈ 35.1 µM) | – | – | – | –
O=C(Cc1ccccc1)N1CCCN(c2ccn3cc(-c4ccc(F)cc4)nc3n2)CC1 | 262 µM | > 300 µM | 8.4 µg/mL (≈ 19.6 µM) | 10.2 µg/mL (≈ 23.7 µM) | > 300 µM | 34.2 µg/mL (≈ 79.6 µM) | 17.4 µM | 38.6 µg/mL (≈ 89.9 µM) | > 100 µg/mL | – | – | – | –
O=C(Cc1cccs1)N1CCCN(c2ccn3cc(-c4ccc(F)cc4)nc3n2)CC1 | > 300 µM | > 300 µM | 3.1 µg/mL (≈ 7.12 µM) | 3.1 µg/mL (≈ 7.12 µM) | 65.5 µM | 38.6 µg/mL (≈ 88.6 µM) | 18.8 µM | 44.2 µg/mL (≈ 101 µM) | 5.6 µg/mL (≈ 12.9 µM) | – | – | – | –
COc1ccc(S(=O)(=O)N2CCCN(c3ccn4cc(-c5ccc(F)cc5)nc4n3)CC2)cc1 | 205 µM | > 300 µM | > 100 µg/mL | 88.2 µg/mL (≈ 183 µM) | > 300 µM | 14.6 µg/mL (≈ 30.3 µM) | > 300 µM | 12.8 µg/mL (≈ 26.6 µM) | 9.4 µg/mL (≈ 19.5 µM) | – | – | – | –
O=C(C1CC1)N1CCCN(c2ccn3cc(-c4ccc(F)cc4)nc3n2)CC1 | 144 µM | > 300 µM | 94.7 µg/mL (≈ 250 µM) | > 100 µg/mL | > 300 µM | 92.4 µg/mL (≈ 244 µM) | 18.8 µM | 88.6 µg/mL (≈ 234 µM) | > 100 µg/mL | – | – | – | –
C[C@@H]1[C@H](O)[C@@H](C)/C=C/C=C/C=C/C=C/C=C/C=C/C=C/[C@H](O[C@@H]2O[C@H](C)[C@@H](O)[C@H](N)[C@@H]2O)C[C@@H]2O[C@](O)(C[C@@H](O)C[C@@H](O)[C@H](O)CC[C@@H](O)C[C@@H](O)CC(=O)O[C@H]1C)C[C@H](O)[C@H]2C(=O)O [AMPHOTERICIN B] | – | – | – | – | – | – | – | – | 8 µg/mL (≈ 8.66 µM) | – | – | – | –
